The values that follow are results of earlier work, collected in US7666658B1, “Antibody catalysis of enantio- and diastereo-selective aldol reactions” (The Scripps Research Institute, priority 1999, dated 2010).

For this series the following is noted: retro-aldolization of fructose-1,6-bisphosphate, reported at 4° C.

With “muscle aldolase: nature's muscle aldolase, natural enzyme cleaving fructose-1,6-bisphosphate”, the efficiency is listed as 4.9×10^4 s^−1M^−1.
